Measurements as given in patent US20150150892A1, “METHODS AND PRODUCTS RELATED TO LUNG CANCER” (Massachusetts Institute of Technology, priority 2012, published 2015).

Key:
[1] = system: NF-κB transcription factor subunit p65; assay: Immunoblot of nuclear and cytoplasmic p65 in KP cell lines; format: cell-based, mouse; settings: 5 nM bortezomib, 24 hours, KP1 and KP2 cell lines, vs vehicle control
Protocol: (§1) FIG. 1. Bortezomib inhibits NF-κB signaling and induces apoptosis in murine lung adenocarcinoma cell lines. (1A) reduction of nuclear p65 level by bortezomib. Two KP (KrasLSL-G12D/wt;p53flox/flox) cell lines (KP1 and KP2) were treated with 5 nM bortezomib (BZ) or vehicle control (ctrl) for 24 hours. Nuclear (N) and cytoplasmic (C) fractions of protein lysates were immunoblotted with the indicated antibodies. NEMO and Parp serve as cytoplasmic and nuclear loading controls, respectively. (1B) quantitative PCR analysis of a subset of NF-κB target genes in 5 nM bortezomib (BZ)-treated KP cells at the indicated time points. Vehicle control is set to 1. (1C) apoptosis in KP and KP^M (KrasLSL-G12D/wt;p53R127H/−) cells induced by bortezomib. Cells were pre-treated with 5 nM bortezomib for 24 hours, and protein lysates were immunoblotted with CC3 and tubulin antibodies. (1D) quantification of cell death in bortezomib-treated cells. Cells were treated with the indicated concentrations of bortezomib for 24 hours, and dead cells were quantified by Trypan blue staining. Error bars are SD (n=3).
Cell pellets were lysed in Laemmli buffer. Equal amounts of protein (16 μg) were separated on 10% SDS-polyacrylamide gels and transferred to polyvinylidene difluoride membranes. […]

[2] = system: NF-κB target genes; assay: Quantitative PCR of NF-κB target genes in KP cells; format: cell-based, mouse
Protocol: as §1
FIG. 7: The NF-κB inhibitor Bay-117082 leads to lung tumor regression in vivo. (7A) quantitative PCR analysis of NF-κB target gene expression in KP cells treated with 10 μM Bay-117082 for indicated hours. Error bars are SD (n=3). (7B) Bay-117082 treatment leads to lung tumor regression and delays tumor progression in the orthotopic lung tumor model. A total of 50,000 luciferase-tagged KP cells were transplanted into recipient mice (n=6), and treatment was started at 19 days after transplantation (set at D0). Mice were treated with vehicle control or 10 mg/kg Bay-117082 by i.p. injection, and imaged at the indicated time points. Arrows indicate Bay-117082 injections. (7C) Bay-117082 prolongs survival in the KP model (n=6; P=0.008). “i.p. dosing” indicates treatment with 3 doses per week.
RNA was purified using TRIzol (Invitrogen), according to the manufacturer's instructions. One microgram of RNA was reverse transcribed using the High-Capacity cDNA Reverse Transcription Kit (Applied Biosystems). Real-time PCR (quantitative PCR) amplification was performed using Taqman probes (Applied Biosystems). Data were normalized to the Gapdh (mouse) or GAPDH (human) levels.

[3] = system: KP and KP^M cells; assay: Cleaved caspase 3 (CC3) immunoblot in lung adenocarcinoma cells; format: cell-based, mouse; settings: 5 nM bortezomib, 24 hours, KP and KP^M cells
Protocol: as §1
FIG. 17: Bay-117082 induces cell death In KP cells. […] (17B) Bay-117082 induces apoptosis in KP cells. Cells were treated with 10IJM Bay-117082 for 48 hours. Protein lysates were immunoblotted with cleaved caspase 3 (CC3) and Tubulin antibodies.
Cell pellets were lysed in Laemmli buffer. […]

[4] = system: KP and KP^M cells; assay: Trypan blue quantification of cell death; format: cell-based, mouse; settings: 24 hours, indicated concentrations
Protocol: as §1
As the NF-κB pathway is known to inhibit apoptosis through its regulation of antiapoptotic genes, we next addressed the cytotoxicity of bortezomib in vitro (6).

[5] = system: LKR13 cells and 3TZ fibroblasts; assay: Trypan blue quantification of cell death, control cells; format: cell-based, mouse; settings: 24 hours
[6] = system: KP mice; assay: Kaplan-Meier survival of KP mice; format: in vivo, mouse; settings: KP mice, bortezomib 1 mg/kg once a week for 4 weeks from 8 weeks after Adeno-Cre; control 76.8±10.6 days; P=0.001
Protocol: (5A and 5B) Kaplan-Meier survival curve of vehicle control and bortezomib-treated KP (5A) and K (5B) mice. Arrows indicate weekly 1 mg/kg bortezomib regimen. […] Arrows indicate bortezomib injection.
To initiate lung tumors, cohorts of K or KP mice of 129svJae background were infected with 2.5×10^7 plaque-forming units of Adeno-Cre (University of Iowa) by intranasal inhalation, as described previously (2, 28). Mice were given bortezomib (LC Labs) in PBS [0.5% dimethylsulfoxide (DMSO)] at 1 mg/kg body weight i.v., as indicated.
To analyze the long-term effects of bortezomib therapy, we investigated whether a 4-dose regimen of bortezomib (19) could prolong survival of tumor-bearing mice. Using a cohort of KP mice, we treated tumor-bearing animals 8 weeks after Adeno-Cre infection with bortezomib once a week for 4 weeks (FIG. 10A).

[7] = system: KrasLSL-G12D/wt mice; assay: Kaplan-Meier survival of K mice; format: in vivo, mouse; settings: KrasLSL-G12D/wt cohort, weekly 1 mg/kg bortezomib; P=0.36
Protocol: (5A and 5B) Kaplan-Meier survival curve of vehicle control and bortezomib-treated KP (5A) and K (5B) mice. Arrows indicate weekly 1 mg/kg bortezomib regimen.
To initiate lung tumors, cohorts of K or KP mice of 129svJae background were infected with 2.5×10^7 plaque-forming units of Adeno-Cre (University of Iowa) by intranasal inhalation, as described previously (2, 28). Mice were given bortezomib (LC Labs) in PBS [0.5% dimethylsulfoxide (DMSO)] at 1 mg/kg body weight i.v., as indicated. Bay-117082 (CalBiochem) was dissolved in DMSO, diluted in PBS as a fine suspension, and injected at 10 mg/kg body weight i.p., as indicated.
Using a cohort of KP mice, we treated tumor-bearing animals 8 weeks after Adeno-Cre infection with bortezomib once a week for 4 weeks (FIG. 10A).

[8] = system: KrasL^St-G12Dwt (low NF-κB) mice; assay: FIG. 19 study, mice with low NF-κB; format: in vivo, mouse; settings: 1 mg/kg IV bortezomib
Protocol: FIG. 19 is a schetaic diagram showing the experimental conditions and a set of graphs showing the results. Two sets of mice were treated with […] IV bortezomib, Kras^G120;p53^fl/fl (high NF-κB, top panel) or KrasL^St-G12Dwt (low NF-κB, bottom panel). […] The relapsed tumors have high Hmcgs2.
Mice having either high or low levels of NF-κB were treated with […] IV bortezomib and examined for tumor progression, apoptosis and survival. The mice are Kras^G120;p53^fl/fl (high NF-κB) or KrasL^St-G12Dwt (low NF-κB). […] The relapsed tumors have high Hmcgs2.

[9] = system: Bortezomib-resistant KP cell lines; settings: upon bortezomib treatment; viability 24 hours, colonies 7 days
Protocol: (12A) Relative cell viability in cell lines treated with increasing doses of Bortezomib for 24 hours. Cells lines were outgrown from Bortezomib resistant orthotopic tumors (resistant 1&2) or sensitive tumors (sensitive) as in FIG. 6C. Error bars are s.d. (n=3). (12B) Colony formation assay in Bortezomib-resistant cells. 104 cells were plated in 6-well plate and treated with indicated drug concentration. Plates were stained 7 days later with crystal violet solution. Drug-containing medium was refreshed every 4 days.
Cells were split into 96-well plates (5,000 cells per well). After 24 hours, cells were treated with bortezomib, and 24 hours later cell viability was measured by the Cell Titer Aqueous Kit (Promega) in triplicates. Vehicle control-treated cell values were set to 1 (100% viability).

[10] = system: advanced NSCLC patients previously treated with chemotherapy; settings: cited from earlier work
[11] = system: CDK inhibitors p21 and p27; settings: cited from earlier work
[12] = 5 nM bortezomib, time course, KP cells

## CC(C)C[C@H](NC(=O)[C@H](Cc1ccccc1)NC(=O)c1cnccn1)B(O)O [bortezomib, N-(2-pyrazine) carbonyl-L-phenylalanine-L-leucine boronic acid]
[1]
  nuclear accumulation of p65: reduced nuclear accumulation
[2]; 5 nM bortezomib, KP cells
  I16 mRNA level: increased
[2]; [12]
  expression of inflammation NF-κB targets I16, Tnf, Mmp3: not reduced
  expression of proliferation related NF-κB target genes c-Myc and Cyclin D1: reduced expression
[2]; 5 nM bortezomib, time course, KP cells, real-time PCR
  expression of NF-κB-regulated antiapoptosis genes Bcl2, Bclx1, Birc2 (cIAP1), Birc5 (Survivin): consistently downregulated
[2]; KP cells in vitro, FIG. 1B and FIG. 7A
  Bcl2 and Myc inhibition, bortezomib compared with Bay-117082: more robust
[3]
  cleaved caspase 3 (CC3): increased cleaved caspase 3
[4]
  cell death by Trypan blue counting: caused cell death in a dose-dependent manner
[5]
  cell death by Trypan blue counting: did not show substantial cell death
[6]
  survival: 104.2 ± 19.8 days
[7]
  survival: no improvement in survival
[8]
  tumor response, apoptosis and survival (FIG. 19): no tumor regression, apoptosis and no survival advantage
[9]
  viability and colony formation of resistant cells compared with sensitive cells: higher viability and increased colony formation
[10]
  effects in Phase II clinical trials: modest effects
[11]
  effect on CDK inhibitors p21 and p27: stabilize
